This is an account of results in ChEMBL document CHEMBL1201862, “PubChem BioAssay data set” (2004).

SMILES strings stand for the structures.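 96-well plates; 48 h exposure; 5 concentrations. Endpoints by linear interpolation between flanking doses. Not reached: highest tested concentration assigned. The concentration for 50% growth inhibition is given as GI50.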 Active and inactive are the calls of the source. Rule as the data show it: active = GI50 up to about 1.1 µM and inactive = higher.

Holding throughout (test): NCI tumour cell line growth inhibition, 48 h
In test [1] the test system is SF-539.
Test [2] has as its system HCT-15.
Test [3] deals with MCF7.
The test system of test [4] is KM12.
The subject of test [5] is SNB-75.
Test [6] has as its system 786-0.
Test [7] concerns PC-3.
The subject of test [8] is MDA-MB-435.
The test system of test [9] is TK-10.
Test [10] deals with BT-549.
The test system of test [11] is HOP-62.
The subject of test [12] is SK-OV-3.
The test system of test [13] is HOP-92.
In test [14] the test system is HT-29.
Test [15] deals with CCRF-CEM.
Test [16] concerns EKVX.
Test [17] concerns OVCAR-4.
In test [18] the test system is NCI-H522.
Test [19] relates to SNB-19.
Test [20] concerns OVCAR-5.

For `CCCCCCc1cc2cc(-c3cn4c(n3)sc3ccccc34)c(=O)oc2cc1O`, the GI50 in [1] was > 100 µM (inactive); in [2], above 75.7 µM; in test [3], > 100 µM (inactive); in test [4] it was > 26.9 µM (inactive); in test [5] it was > 78.5 µM (inactive); in test [6], > 31.6 µM (inactive). In addition, the GI50 in test [7] is > 100 µM (inactive); in test [8], 3.46 µM (inactive); in [9], > 100 µM (inactive); in test [10], > 100 µM (inactive); in [11] it was 73.1 µM (inactive); in [12], > 100 µM (inactive). Moreover, the GI50 in [13] is > 100 µM (inactive); in [14] it was 15.4 µM (inactive); in test [15], > 100 µM (inactive); in [16], 99.8 µM (inactive); in [17], 3.98 µM (inactive); in test [18], > 90.4 µM (inactive). The GI50 in [19] and in test [20] was > 100 µM (inactive) throughout.

`Cc1ccc(NC(=O)/C(Cc2cc(=O)oc3cc(O)ccc23)=N\NC(=O)C[N+](C)(C)C)cc1C`: the GI50 was > 100 µM (inactive) in test [1]; above 100 µM in [2]; > 100 µM (inactive) in test [3]; > 100 µM (inactive) in test [4]; > 100 µM (inactive) in test [5]; > 100 µM (inactive) in test [6]. Moreover, the GI50 in test [7], in test [8], in test [9], in [10], in test [11] and in [12] was > 100 µM (inactive) throughout. Moreover, the GI50 in [13], in test [14], in test [15], in test [16], in test [17] and in test [18] was > 100 µM (inactive) each time. Moreover, the GI50 in test [19] and in [20] was > 100 µM (inactive) throughout.

Regarding `C[Si](C)(c1ccc(C(=O)O)cc1)c1ccc(C(=O)O)cc1`, the GI50 was > 100 µM (inactive) in test [1]; above 100 µM in [2]; > 100 µM (inactive) in [3]; > 100 µM (inactive) in test [4]; > 100 µM (inactive) in test [5]; > 100 µM (inactive) in test [6]. Besides, the GI50 in test [7], in test [8], in test [9], in test [10], in test [11] and in [12] was > 100 µM (inactive) throughout. For the same compound, the GI50 in test [13], in test [14], in test [15], in test [16], in test [17] and in [18] was > 100 µM (inactive) in each case. Also, the GI50 in test [19] and in [20] was > 100 µM (inactive) each time.

Turning to `CC(C)(C)OC(=O)N1CCC2(C)CC(=O)CC=C12` (stereo not given), the GI50 in test [1] is > 100 µM (inactive); in [2], above 100 µM; in test [3], > 100 µM (inactive); in test [4], > 100 µM (inactive); in [5], > 100 µM (inactive); in [6], > 100 µM (inactive). For the same compound, the GI50 in test [7], in test [8], in [9], in test [10], in [11] and in test [12] was > 100 µM (inactive) each time. Moreover, the GI50 is > 100 µM (inactive) in test [13]; > 100 µM (inactive) in test [14]; 27.2 µM (inactive) in test [15]; > 100 µM (inactive) in [16]; > 100 µM (inactive) in test [17]; 45.4 µM (inactive) in test [18]. Also, the GI50 in [19] and in [20] was > 100 µM (inactive) throughout.
